The test system of this assay is MV-4-11 cells. In words: Gene expression microarray analysis (Affymetrix PrimeView) and GSEA. The class given is cell-based, human. Details: RFU PODN (11730768_x_at) / Fold change /veh PODN (11730768_x_at) / RFU LINC00158 (11744669_a_at) / Fold change /veh LINC00158 (11744669_a_at) / RFU DUSP10 (11751237_a_at) / Fold change /veh DUSP10 (11751237_a_at) / RFU ID3 (11757404_x_at) / Fold change /veh ID3 (11757404_x_at) / RFU PLEKHG5 (11737974_s_at) / Fold change /veh PLEKHG5 (11737974_s_at) / RFU LRRC4B (11730491_at) / Fold change /veh LRRC4B (11730491_at) / RFU GIMAP4 (11747438_a_at) / Fold change /veh GIMAP4 (11747438_a_at) / RFU KRT8 (11758183_x_at) / Fold change /veh KRT8 (11758183_x_at) / RFU CNN1 (11734310_a_at) / Fold change /veh CNN1 (11734310_a_at) / RFU VPS37D (11726825_at) / Fold change /veh VPS37D (11726825_at) / RFU C10orf10 (11716522_x_at) / Fold change /veh C10orf10 (11716522_x_at) / RFU KIR2DL2 /// KIR2DL4 /// KIR2DL5A /// KIR2DL5B /// KIR2DS1 /// KIR2DS2 /// KIR2DS3 /// KIR2DS4 /// KIR3DL3 /// KIR3DL3 /// KIR3DS1 (11738374_at) / Fold change /veh KIR2DL2 /// KIR2DL4 /// KIR2DL5A /// KIR2DL5B /// KIR2DS1 /// KIR2DS2 /// KIR2DS3 /// KIR2DS4 /// KIR3DL3 /// KIR3DL3 /// KIR3DS1 (11738374_at) / RFU C1QL1 (11718748_at) / Fold change /veh C1QL1 (11718748_at) / RFU TMPRSS4 (11747572_a_at) / Fold change /veh TMPRSS4 (11747572_a_at) / RFU HAMP (11756126_x_at) / Fold change /veh HAMP (11756126_x_at) / RFU RNFT2 (11725882_a_at) / Fold change /veh RNFT2 (11725882_a_at) / RFU NR4A2 (11747474_a_at) / Fold change /veh NR4A2 (11747474_a_at) / RFU ABCC12 (11746883_a_at) / Fold change /veh ABCC12 (11746883_a_at) / RFU TMEM136 (11760407_x_at) / Fold change /veh TMEM136 (11760407_x_at) / RFU CLDN22 /// WWC2 (11732394_at) / Fold change /veh CLDN22 /// WWC2 (11732394_at) / RFU HLA-DPB1 (11760878_x_at) / Fold change /veh HLA-DPB1 (11760878_x_at) / RFU SPINT1 (11716480_a_at) / Fold change /veh SPINT1 (11716480_a_at) / RFU GAP43 (11754022_s_at) / Fold change /veh GAP43 (11754022_s_at) / RFU A4GNT (11735810_at) / Fold change /veh A4GNT (11735810_at) / RFU PRB3 (11715151_x_at) / Fold change /veh PRB3 (11715151_x_at) / RFU TUBB4B (11761932_at) / Fold change /veh TUBB4B (11761932_at) / RFU CAPN14 (11732068_a_at) / Fold change /veh CAPN14 (11732068_a_at) / RFU TMCC2 (11721928_a_at) / Fold change /veh TMCC2 (11721928_a_at) / RFU IRGQ (11745062_a_at) / Fold change /veh IRGQ (11745062_a_at) / RFU FAM174B (11720279_a_at) / Fold change /veh FAM174B (11720279_a_at) / RFU TMPRSS4 (11748680_a_at) / Fold change /veh TMPRSS4 (11748680_a_at) / RFU FAM212B (11763350_a_at) / Fold change /veh FAM212B (11763350_a_at) / RFU PLEKHG5 (11743358_a_at) / Fold change /veh PLEKHG5 (11743358_a_at) / RFU ZSCAN30 (11745921_a_at) / Fold change /veh ZSCAN30 (11745921_a_at) / RFU CMKLR1 (11741424_a_at) / Fold change /veh CMKLR1 (11741424_a_at) / RFU LOC101060620 /// MAPK8IP1 (11723275_at) / Fold change /veh LOC101060620 /// MAPK8IP1 (11723275_at) / RFU SPTSSB (11747773_x_at) / Fold change /veh SPTSSB (11747773_x_at) / RFU PRSS12 (11739890_at) / Fold change /veh PRSS12 (11739890_at) / RFU BIN1 (11741810_x_at) / Fold change /veh BIN1 (11741810_x_at) / RFU WNT11 (11732464_a_at) / Fold change /veh WNT11 (11732464_a_at) / RFU C10orf10 (11716521_a_at) / Fold change /veh C10orf10 (11716521_a_at) / RFU C5orf56 (11738089_at) / Fold change /veh C5orf56 (11738089_at) / RFU CYB561 (11721691_x_at) / Fold change /veh CYB561 (11721691_x_at) / RFU ANKRD19P (11752326_a_at) / Fold change /veh ANKRD19P (11752326_a_at) / RFU OR2T12 /// OR2T33 /// OR2T8 (11738714_s_at) / Fold change /veh OR2T12 /// OR2T33 /// OR2T8 (11738714_s_at) / RFU VCAN (11748164_a_at) / Fold change /veh VCAN (11748164_a_at) / RFU JSRP1 (11732532_at) / Fold change /veh JSRP1 (11732532_at) / RFU KRTAP10-11 (11738290_x_at) / Fold change /veh KRTAP10-11 (11738290_x_at) / RFU MYO3A (11730013_a_at) / Fold change /veh MYO3A (11730013_a_at) / RFU EBF3 (11725865_a_at) / Fold change /veh EBF3 (11725865_a_at) / RFU CAMK2N1 (11719241_x_at) / Fold change /veh CAMK2N1 (11719241_x_at) / RFU C5orf56 (11738088_a_at) / Fold change /veh C5orf56 (11738088_a_at) / RFU OLFML3 (11715873_a_at) / Fold change /veh OLFML3 (11715873_a_at) / RFU LOC100653217 /// NTM (11731650_a_at) / Fold change /veh LOC100653217 /// NTM (11731650_a_at) / RFU MAPK11 (11762145_a_at) / Fold change /veh MAPK11 (11762145_a_at) / RFU FIZ1 (11724087_x_at) / Fold change /veh FIZ1 (11724087_x_at) / RFU OASL (11726364_x_at) / Fold change /veh OASL (11726364_x_at) / RFU SOX15 (11748057_x_at) / Fold change /veh SOX15 (11748057_x_at) / RFU CD79A (11719716_a_at) / Fold change /veh CD79A (11719716_a_at) / RFU HIST1H1D (11736915_at) / Fold change /veh HIST1H1D (11736915_at) / RFU CASKIN2 (11723855_a_at) / Fold change /veh CASKIN2 (11723855_a_at) / RFU LOC730098 (11760151_x_at) / Fold change /veh LOC730098 (11760151_x_at) / RFU OR4N2 (11742367_at) / Fold change /veh OR4N2 (11742367_at) / RFU PRRT2 (11749266_a_at) / Fold change /veh PRRT2 (11749266_a_at) / RFU SNX32 (11753110_a_at) / Fold change /veh SNX32 (11753110_a_at) / RFU CDHR5 (11726645_a_at) / Fold change /veh CDHR5 (11726645_a_at) / RFU RCAN1 (11760418_a_at) / Fold change /veh RCAN1 (11760418_a_at) / RFU FAM167A (11723789_a_at) / Fold change /veh FAM167A (11723789_a_at) / RFU FAM26E (11764081_at) / Fold change /veh FAM26E (11764081_at) / RFU ISYNA1 (11749810_s_at) / Fold change /veh ISYNA1 (11749810_s_at) / RFU ACY1 (11761880_at) / Fold change /veh ACY1 (11761880_at) / RFU 11764098_at / Fold change /veh 11764098_at / RFU SAMD14 (11745864_x_at) / Fold change /veh SAMD14 (11745864_x_at) / RFU NPB (11741838_a_at) / Fold change /veh NPB (11741838_a_at) / RFU TMPRSS6 (11731388_a_at) / Fold change /veh TMPRSS6 (11731388_a_at) / RFU KRTAP10-2 (11738614_at) / Fold change /veh KRTAP10-2 (11738614_at) / RFU ARHGAP8 /// PRR5-ARHGAP8 (11727945_x_at) / Fold change /veh ARHGAP8 /// PRR5-ARHGAP8 (11727945_x_at) / RFU KRTAP5-7 /// NADSYN1 (11734609_at) / Fold change /veh KRTAP5-7 /// NADSYN1 (11734609_at) / RFU RASL12 (11751679_a_at) / Fold change /veh RASL12 (11751679_a_at) / RFU CDKN2B (11736163_a_at) / Fold change /veh CDKN2B (11736163_a_at) / RFU PRF1 (11729649_at) / Fold change /veh PRF1 (11729649_at) / RFU, ZNF638 /// ZNF638-IT1 / Fold change vs veh, ZNF638 /// ZNF638-IT1 / RFU, PANK3 / Fold change vs veh, PANK3 / RFU, SH3YL1 / Fold change vs veh, SH3YL1 / RFU, ZEB2 / Fold change vs veh, ZEB2 / RFU, NRIP1 / Fold change vs veh, NRIP1 / RFU, PTTG1IP / Fold change vs veh, PTTG1IP / RFU, CAPN2 / Fold change vs veh, CAPN2 / RFU, MED14 / Fold change vs veh, MED14 / RFU, SNORA58 / Fold change vs veh, SNORA58 / RFU, C1orf63 / Fold change vs veh, C1orf63 / RFU, LRRFIP1 / Fold change vs veh, LRRFIP1 / RFU, NDUFAF7 / Fold change vs veh, NDUFAF7 / RFU, SLC12A2 / Fold change vs veh, SLC12A2 / RFU, IBTK / Fold change vs veh, IBTK / RFU, ESF1 / Fold change vs veh, ESF1 / Fold change vs veh, TMEM50B / RFU, TAOK1 / Fold change vs veh, TAOK1 / RFU, ACBD3 / Fold change vs veh, ACBD3 / RFU, TMA16 / Fold change vs veh, TMA16 / RFU, RWDD3 / Fold change vs veh, RWDD3 / RFU, BCAT1 / Fold change vs veh, BCAT1 / RFU, EDEM3 / Fold change vs veh, EDEM3 / RFU, TMEM33 / Fold change vs veh, TMEM33 / RFU, WDR75 / Fold change vs veh, WDR75 / RFU, AHCTF1 / Fold change vs veh, AHCTF1 / RFU, TFRC / Fold change vs veh, TFRC / RFU, ZDHHC17 / Fold change vs veh, ZDHHC17 / RFU, NOM1 / Fold change vs veh, NOM1 / RFU, ARL8B / Fold change vs veh, ARL8B / RFU, ZBTB11 / Fold change vs veh, ZBTB11 / RFU, TAMM41 / Fold change vs veh, TAMM41 / RFU, KIAA1704 /// LOC100996395 / Fold change vs veh, KIAA1704 /// LOC100996395 / RFU, ING1 / Fold change vs veh, ING1 / RFU, TRMT61B / Fold change vs veh, TRMT61B / RFU, FUBP3 / Fold change vs veh, FUBP3 / RFU, TP53 / Fold change vs veh, TP53 / RFU, TNKS2 / Fold change vs veh, TNKS2 / RFU, ZFP14 / Fold change vs veh, ZFP14 / RFU, ACTR2 / Fold change vs veh, ACTR2 / RFU, PPP3R1 / Fold change vs veh, PPP3R1 / RFU, PIK3R1 / Fold change vs veh, PIK3R1 / RFU, HNRNPA1 / Fold change vs veh, HNRNPA1 / RFU, RNF170 / Fold change vs veh, RNF170 / RFU, ZNF28 / Fold change vs veh, ZNF28 / RFU, RNGTT / Fold change vs veh, RNGTT / RFU, OGT / Fold change vs veh, OGT / RFU, BRD1 / Fold change vs veh, BRD1 / RFU, MARS / Fold change vs veh, MARS / RFU, ZNF655 / Fold change vs veh, ZNF655 / RFU, FAHD1 / Fold change vs veh, FAHD1 / RFU, BDP1 / Fold change vs veh, BDP1 / RFU, LRRCC1 / Fold change vs veh, LRRCC1 / RFU, ARID1A / Fold change vs veh, ARID1A / RFU, ZNF146 / Fold change vs veh, ZNF146 / RFU, ZNF330 / Fold change vs veh, ZNF330 / RFU, GPN3 / Fold change vs veh, GPN3 / RFU, C9orf123 / Fold change vs veh, C9orf123 / RFU, N4BP2L2 / Fold change vs veh, N4BP2L2 / RFU, ARFIP1 / Fold change vs veh, ARFIP1 / RFU, FAM179B / Fold change vs veh, FAM179B / RFU, BCL10 / Fold change vs veh, BCL10 / RFU, UHRF1BP1L / Fold change vs veh, UHRF1BP1L / RFU, BET1 / Fold change vs veh, BET1 / RFU, CNOT2 / Fold change vs veh, CNOT2 / RFU, ZNF268 / Fold change vs veh, ZNF268 / Fold change vs veh, ZNF507 / RFU, DGCR2 / Fold change vs veh, DGCR2 / RFU, WDSUB1 / Fold change vs veh, WDSUB1 / Fold change vs veh, HSP90B1 /// MIR3652 / RFU, ADSS / Fold change vs veh, ADSS / RFU, GK / Fold change vs veh, GK / RFU, ZNF148 / Fold change vs veh, ZNF148 / RFU, TAF9 / Fold change vs veh, TAF9 / RFU, SLC1A5 / Fold change vs veh, SLC1A5 / RFU, SLMO2 / Fold change vs veh, SLMO2 / RFU, ABCC4 / Fold change vs veh, ABCC4 / RFU, LOC101060439 /// RAP1B / Fold change vs veh, LOC101060439 /// RAP1B / RFU, RFX7 / Fold change vs veh, RFX7 / RFU, GTPBP10 / Fold change vs veh, GTPBP10 / RFU, CNEP1R1 / Fold change vs veh, CNEP1R1 / RFU, BIVM-ERCC5 /// ERCC5 / Fold change vs veh, BIVM-ERCC5 /// ERCC5 / RFU, ILF3 / Fold change vs veh, ILF3 / RFU 11762660_at / Fold change /veh 11762660_at / RFU VCAN (11757783_s_at) / Fold change /veh VCAN (11757783_s_at) / RFU DDX43 (11728927_at) / Fold change /veh DDX43 (11728927_at) / RFU KRT8 (11758188_x_at) / Fold change /veh KRT8 (11758188_x_at) / RFU NKD1 (11759106_at) / Fold change /veh NKD1 (11759106_at) / RFU SRD5A1 (11742802_a_at) / Fold change /veh SRD5A1 (11742802_a_at) / RFU TPSAB1 /// TPSB2 (11721975_s_at) / Fold change /veh TPSAB1 /// TPSB2 (11721975_s_at) / RFU GSTM3 (11746129_a_at) / Fold change /veh GSTM3 (11746129_a_at) / RFU IL23R (11737362_x_at) / Fold change /veh IL23R (11737362_x_at) / RFU TMEM51 (11727254_a_at) / Fold change /veh TMEM51 (11727254_a_at) / RFU PIWIL2 (11732686_x_at) / Fold change /veh PIWIL2 (11732686_x_at) / RFU ORM1 (11744905_x_at) / Fold change /veh ORM1 (11744905_x_at) / RFU CCDC152 (11743942_at) / Fold change /veh CCDC152 (11743942_at) / RFU ECM1 (11717891_a_at) / Fold change /veh ECM1 (11717891_a_at) / RFU IL23R (11748794_a_at) / Fold change /veh IL23R (11748794_a_at) / RFU TNFAIP8L3 (11732012_x_at) / Fold change /veh TNFAIP8L3 (11732012_x_at) / RFU MBOAT4 (11741988_at) / Fold change /veh MBOAT4 (11741988_at) / RFU 11764193_at / Fold change /veh 11764193_at / RFU TMEM53 (11763286_at) / Fold change /veh TMEM53 (11763286_at) / RFU MAGEB2 (11727129_at) / Fold change /veh MAGEB2 (11727129_at) / RFU TMEM200A (11744735_a_at) / Fold change /veh TMEM200A (11744735_a_at) / RFU CCDC152 (11751479_a_at) / Fold change /veh CCDC152 (11751479_a_at) / RFU FAM211A (11726209_a_at) / Fold change /veh FAM211A (11726209_a_at) / RFU RGS16 (11746705_a_at) / Fold change /veh RGS16 (11746705_a_at) / RFU VCAN (11755009_s_at) / Fold change /veh VCAN (11755009_s_at) / RFU RHOB (11743442_s_at) / Fold change /veh RHOB (11743442_s_at) / RFU RGS16 (11720943_a_at) / Fold change /veh RGS16 (11720943_a_at) / RFU RGS16 (11720944_at) / Fold change /veh RGS16 (11720944_at) / RFU, VPS4B / Fold change vs veh, VPS4B / RFU, CREB1 / Fold change vs veh, CREB1 / RFU, DNAJC13 / Fold change vs veh, DNAJC13 / RFU, GNAQ / Fold change vs veh, GNAQ / RFU, CDK5R1 / Fold change vs veh, CDK5R1 / RFU, ZRANB3 / Fold change vs veh, ZRANB3 / RFU, CUL4A / Fold change vs veh, CUL4A / RFU, CCNY / Fold change vs veh, CCNY / RFU, UFL1 / Fold change vs veh, UFL1 / RFU, COG3 / Fold change vs veh, COG3 / RFU, DIAPH2 / Fold change vs veh, DIAPH2 / RFU, SKA2 / Fold change vs veh, SKA2 / RFU, AFF3 / Fold change vs veh, AFF3 / RFU, LMF1 / Fold change vs veh, LMF1 / RFU, IPO11 / Fold change vs veh, IPO11 / RFU, DFFB / Fold change vs veh, DFFB / RFU, FOXP1 / Fold change vs veh, FOXP1 / RFU, CARD8 / Fold change vs veh, CARD8 / RFU, STRN3 / Fold change vs veh, STRN3 / RFU, ADK / Fold change vs veh, ADK / RFU, RASSF2 / Fold change vs veh, RASSF2 / RFU, WIPF1 / Fold change vs veh, WIPF1 / RFU, LARP1B / Fold change vs veh, LARP1B / RFU, RASA1 / Fold change vs veh, RASA1 / RFU, RB1 / Fold change vs veh, RB1 / RFU, PPFIA1 / Fold change vs veh, PPFIA1 / RFU, MAT2A / Fold change vs veh, MAT2A / RFU, CCT5 / Fold change vs veh, CCT5 / RFU, WDR92 / Fold change vs veh, WDR92 / RFU, CUX1 / Fold change vs veh, CUX1 / RFU, TTC7A / Fold change vs veh, TTC7A / RFU, TMEM135 / Fold change vs veh, TMEM135 / RFU, DEPTOR / Fold change vs veh, DEPTOR / RFU, CPM / Fold change vs veh, CPM / RFU, DNAJB6 / Fold change vs veh, DNAJB6 / RFU, CACNA2D3 / Fold change vs veh, CACNA2D3 / RFU, DTX4 / Fold change vs veh, DTX4 / RFU, TFCP2 / Fold change vs veh, TFCP2 / RFU, GMCL1 /// GMCL1P1 / Fold change vs veh, GMCL1 /// GMCL1P1 / RFU, AEBP2 / Fold change vs veh, AEBP2 / RFU, SNHG1 /// SNORD22 /// SNORD25 /// SNORD26 /// SNORD27 /// SNORD28 /// SNORD29 /// SNORD31 / Fold change vs veh, SNHG1 /// SNORD22 /// SNORD25 /// SNORD26 /// SNORD27 /// SNORD28 /// SNORD29 /// SNORD31 / Fold change (Aza/veh), C12orf56 (ProbeSet 11735607_a_at) / Fold change (ACY-1035/veh), C12orf56 (ProbeSet 11735607_a_at) / Fold change (Aza/veh), FGFR1OP (ProbeSet 11751329_s_at) / Fold change (ACY-1035/veh), FGFR1OP (ProbeSet 11751329_s_at) / Fold change (Aza/veh), VPS36 (ProbeSet 11739960_a_at) / Fold change (ACY-1035/veh), VPS36 (ProbeSet 11739960_a_at) / RFU SYPL1 (11715823_x_at) / Fold change /veh SYPL1 (11715823_x_at) / RFU IGFBP7 (11715501_s_at) / Fold change /veh IGFBP7 (11715501_s_at) / RFU REEP3 (11722064_at) / Fold change /veh REEP3 (11722064_at) / RFU IGLL1 (11728026_x_at) / Fold change /veh IGLL1 (11728026_x_at): dose or concentration left out as unconfirmed. The following applies: MV-4-11 cells, 48 hours.

In the case of `Nc1ccc(-c2cccs2)cc1NC(=O)c1ccc2c(c1)cc(C1CC1)n2CCN1CCOCC1` [ACY-1035], the “RFU NR4A2 (11747474_a_at)” value was found to be 22.98 RFU.

The values above are taken from publication PMC5218480 (PLoS ONE, 2017).
